Measured values taken from patent US20120134933A1, “USE OF HIGH-DOSES OF MONOMERIC CONTRAST MEDIUM CONTAINING IODINE IN X-RAY DIAGNOSTICS, IN PARTICULAR IN INTERVENTIONAL X-RAY DIAGNOSTICS AND IN RADIATION THERAPY ASSISTED BY CONTRAST MEDIA CONTAINING IODINE” (BAYER PHARMA AKTIENGESELLSCHAFT, priority 2009, published 2012).

Assays:
Format in all cases: in vivo, Wistar Han rats
tubular cells = assay: Vacuolization in the kidney 24 hours after injection of XCM (histology of paraffin sections); settings: rat, 4 g of iodine per kg of BW i.v.; for degree of vacuolization in the kidney (in words): compared among monomeric XCMs
Experimental: (§1) For the study, use was made of the following XCMs, each obtained from their producer. The monomeric XCMs investigated were iopromide 300 (Bayer Vital, Leverkusen), iomeprol 300 (Altana, Konstanz, Germany), and iohexyl 350 (Omnipaque, GE Healthcare, Munich, Germany). For comparison, Isovist 300 (Bayer Vital, Leverkusen) and iodixanol 320 and iodixanol 270 (Visipaque, GE Healthcare, Munich, Germany), two dimeric XCMs, were also included in the study. The XCMs were injected in one dose of 4 g per kg of body weight (BW). As with all toxicological issues, it should be noted that the conversion to the human dose has to be based on body surface area. Thus, 4 g of iodine per kg of BW in the rat correspond to about 0.6 g of iodine per kg of BW in humans.
(§2) Wistar Han (CRL: WI) rats (male; 230-300 g) were obtained from Charles River (Sulzfeld, Germany). The animals were kept under normal laboratory conditions at a temperature of 22° C. and a night/day rhythm of 12 hours. The animals had access to standard feed and water ad libitum. The animals were kept and treated in accordance with the German animal welfare guidelines.
(§3) The respective XCMs were intravenously (i.v.) injected in one dose of 4 g of iodine per kg of BW (corresponds to 0.6 g of iodine per kg of BW in humans) into the tail vein. The XCMs were manually injected as a bolus, followed by a 0.2 ml bolus of saline solution. Each test group consisted of 6 test animals. The iodine concentrations in the kidneys were determined ex vivo by X-ray fluorescence analysis (XFA). 24 hours after the XCM injection, the animals were sacrificed and both kidneys were removed. The kidneys were lysed in 10% KOH, and the iodine concentration in the sample was subsequently determined by XFA. The iodine concentrations in the renal cortex were determined 24 hours after the injection using a 64-slice CT scanner (Sensation 64, Siemens Medical Solutions, Erlangen, Germany). Scanner settings (80 kV, 120 mAseff) were used for all investigations, and the reconstructions were carried out with an image field of 70×70 mm and a thickness of 1 mm The X-ray attenuation in Hounsfield units (HU) was determined in the cortex of the kidney in 3 independent regions of interest (ROI) (FIG. 2). All data were carried out by two independent blinded readers.
To determine the degree of vacuolization, a kidney was removed 24 after the injection of the XCMs and a medial piece of tissue was fixed in formaldehyde and embedded in paraffin. The microtome sections were stained with hematoxylin, and the degree of vacuolization was determined. The determination of the degree of vacuolization was carried out in a blinded experiment by Dr. Haider, Institut für Tierpathologie [Institute for Animal Pathology].

[1] = Renal cortex iodine content 24 hours after injection of XCM, X-ray attenuation by CT; settings: rat, 4 g of iodine per kg of BW i.v., 80 kV, mean +/- SD, 6 animals
Experimental: as §1, §2
as §3, with “The XCMs were manually injected as a bolus, followed by a 0.2 ml bolus of saline solution. Each test group consisted of 6 test animals.” left out, “24 hours after the XCM injection, the animals were sacrificed and both kidneys were removed.” left out

[2] = Renal iodine content 24 hours after injection of XCM, X-ray fluorescence analysis (XFA) of lysed kidneys; settings: rat, 4 g of iodine per kg of BW i.v., mean +/- SD, 6 animals
Experimental: as §1, §2
as §3, with “The XCMs were manually injected as a bolus, followed by a 0.2 ml bolus of saline solution. Each test group consisted of 6 test animals.” left out, “24 hours after the XCM injection, the animals were sacrificed and both kidneys were removed.” left out

[3] = of 6 animals, listed as Iopromide 300
[4] = of 6 animals, listed as iopromide

## CC(=O)N(CC(O)CO)c1c(I)c(C(=O)NCC(O)CO)c(I)c(C(=O)NCC(O)CO)c1I (centres unmarked) [iohexyl 350]
Tubular cells
  degree of vacuolization in the kidney (in words): increased vacuolization
Tubular cells; of 6 animals
  Moderate degree of vacuolization (number of animals): 3
  Slight degree of vacuolization (number of animals): 3

## CN(C(=O)CO)c1c(I)c(C(=O)NCC(O)CO)c(I)c(C(=O)NCC(O)CO)c1I (centres unmarked) [iomeprol 300]
[1]
  X-ray attenuation in the renal cortex (CT): 45.0+/−5.9 HU
[2]
  iodine concentration in the kidney (XFA): 0.738+/−0.098 mg of iodine per g of kidney tissue
Tubular cells
  degree of vacuolization in the kidney (in words): increased vacuolization
Tubular cells; of 6 animals
  Slight degree of vacuolization (number of animals): all the animals investigated
Tubular cells; of 6 animals, listed as Iomeprol 300
  Slight degree of vacuolization (number of animals): 6

## COCC(=O)Nc1c(I)c(C(=O)NCC(O)CO)c(I)c(C(=O)N(C)CC(O)CO)c1I (centres unmarked) [iopromide 300, N,N′-bis(2,3-dihydroxypropyl)-2,4,6-triiodo-5-[(methoxyacetyl)amino]-N-methyl-1,3-benzenedicarboxamide]
[1]
  X-ray attenuation in the renal cortex (CT): significantly lowest values
[2]
  iodine concentration in the kidney (XFA): significantly lowest iodine contents
Tubular cells
  degree of vacuolization in the kidney (in words): lowest degree of vacuolization
Tubular cells; [3]
  No vacuolization (number of animals): 2
  Slight degree of vacuolization (number of animals): 4
Tubular cells; [4]
  No vacuolization (number of animals): Two
  Slight degree of vacuolization (number of animals): four

## CN(C(=O)CC(=O)N(C)c1c(I)c(C(=O)NC(CO)C(O)CO)c(I)c(C(=O)NC(CO)C(O)CO)c1I)c1c(I)c(C(=O)NC(CO)C(O)CO)c(I)c(C(=O)NC(CO)C(O)CO)c1I (centres unmarked) [iotrolan 300]
[1]
  X-ray attenuation in the renal cortex (CT): 217.2+/−29.4 HU
[2]
  iodine concentration in the kidney (XFA): 3.4+/−0.6 mg of iodine per g of kidney tissue
